Laboratory results as given in patent EP3981391B1, “ORAL PREPARATION HAVING IMPROVED DISSOLUTION RATE AND DISINTEGRATION PROPERTIES FOR NATURAL SUBSTANCE EXTRACT” (Green Cross WellBeing Corporation, priority 2019, dated 2020).

Assay: Solubility of processed ginseng extract (ginsenosides Rg3 and Rh2 by HPLC) in solvents and dissolution media
Format: physicochemical
Protocol: Processed ginseng extracts were used as natural product extracts of the present invention, and the processed ginseng extracts were prepared by the methods disclosed in Korean Patent Nos. 1595426 and 1966117. Among these, a processed ginseng extract containing 13 wt% of ginsenoside Rg3 and 7 wt% of ginsenoside Rh2 was used.
To investigate the solubility of the processed ginseng extract of the present invention, isopropanol, ethanol, water, and a pH 1.2 buffer, a pH 4.0 buffer, and a pH 6.8 buffer, which are dissolution media disclosed in the Korean Pharmacopoeia, were used as solvents. After 500 mg of the processed ginseng extract was added to 2 g of each solvent, stirring was performed at 50 rpm and 37°C for 18 hours, thereby obtaining each sample. Thereafter, a filtrate obtained by filtration of each sample through a 0.45-µm polyvinylidene fluoride (PVDF) syringe filter was analyzed by high performance liquid chromatography (HPLC) to investigate the solubility of ginsenosides Rg3 and Rh2 contained in the processed ginseng extract. The results are shown in Table 1 below. • HPLC Conditions were as follows: • Column: C18, 1.8 µm, 2.1x50 mm • Column Temperature: 50°C • Detector: UV 203 nm • Flow rate: 0.6 ml/min • Amount of injection: 2 µl • Run time: About 14 min • Mobile phase: distilled water: acetonitrile =57:43 (v/v) TABLE 1

[1] = Ethanol, 500 mg processed ginseng extract in 2 g solvent, 50 rpm, 37°C, 18 hours
[2] = Isopropanol, 500 mg processed ginseng extract in 2 g solvent, 50 rpm, 37°C, 18 hours
[3] = Water, 500 mg processed ginseng extract in 2 g solvent, 50 rpm, 37°C, 18 hours
[4] = pH 1.2 buffer, 500 mg processed ginseng extract in 2 g solvent, 50 rpm, 37°C, 18 hours
[5] = pH 4.0 buffer, 500 mg processed ginseng extract in 2 g solvent, 50 rpm, 37°C, 18 hours
[6] = pH 6.8 buffer, 500 mg processed ginseng extract in 2 g solvent, 50 rpm, 37°C, 18 hours
[7] = in water, a pH 1.2 buffer, or a pH 4.0 buffer

Compound | solubility [1] | solubility [2] | solubility [3] | solubility [4] | solubility [5] | solubility [6] | solubility [7]
CC(C)=CCC[C@](C)(O)[C@H]1CC[C@]2(C)[C@@H]1[C@H](O)C[C@@H]1[C@@]3(C)CC[C@H](O[C@@H]4O[C@H](CO)[C@@H](O)[C@H](O)[C@H]4O[C@@H]4O[C@H](CO)[C@@H](O)[C@H](O)[C@H]4O)C(C)(C)[C@@H]3CC[C@]12C [Ginsenoside Rg3 R-form, Ginsenoside Rg3] | 5.45 mg/g | 4.72 mg/g | 0.05 mg/g | 0.01 mg/g | 0.05 mg/g | 0.31 mg/g | 
CC(C)=CCC[C@](C)(O)[C@H]1CC[C@]2(C)[C@@H]1[C@H](O)C[C@@H]1[C@@]3(C)CC[C@H](O[C@@H]4O[C@H](CO)[C@@H](O)[C@H](O)[C@H]4O[C@@H]4O[C@H](CO)[C@@H](O)[C@H](O)[C@H]4O)C(C)(C)[C@@H]3CC[C@]12C [ginsenoside Rg3] |  |  |  |  |  |  | less than 0.3 mg/g
CC(C)=CCC[C@](C)(O)[C@H]1CC[C@]2(C)[C@@H]1[C@H](O)C[C@@H]1[C@@]3(C)CC[C@H](O[C@@H]4O[C@H](CO)[C@@H](O)[C@H](O)[C@H]4O)C(C)(C)[C@@H]3CC[C@]12C [Ginsenoside Rh2 R-form, Ginsenoside Rh2] | 2.55 mg/g | 2.47 mg/g | 0.00 mg/g | 0.00 mg/g | 0.00 mg/g | 0.09 mg/g | 
CC(C)=CCC[C@](C)(O)[C@H]1CC[C@]2(C)[C@@H]1[C@H](O)C[C@@H]1[C@@]3(C)CC[C@H](O[C@@H]4O[C@H](CO)[C@@H](O)[C@H](O)[C@H]4O[C@@H]4O[C@H](CO)[C@@H](O)[C@H](O)[C@H]4O)C(C)(C)[C@@H]3CC[C@]12C [Ginsenoside Rg3 S-form, Ginsenoside Rg3] | 7.52 mg/g | 7.43 mg/g | 0.21 mg/g | 0.01 mg/g | 0.28 mg/g | 1.23 mg/g | 
CC(C)=CCC[C@](C)(O)[C@H]1CC[C@]2(C)[C@@H]1[C@H](O)C[C@@H]1[C@@]3(C)CC[C@H](O[C@@H]4O[C@H](CO)[C@@H](O)[C@H](O)[C@H]4O)C(C)(C)[C@@H]3CC[C@]12C [Ginsenoside Rh2 S-form, Ginsenoside Rh2] | 3.96 mg/g | 3.99 mg/g | 0.10 mg/g | 0.00 mg/g | 0.13 mg/g | 0.60 mg/g | 
CC(C)=CCC[C@](C)(O)[C@H]1CC[C@]2(C)[C@@H]1[C@H](O)C[C@@H]1[C@@]3(C)CC[C@H](O[C@@H]4O[C@H](CO)[C@@H](O)[C@H](O)[C@H]4O)C(C)(C)[C@@H]3CC[C@]12C [ginsenoside Rh2] |  |  |  |  |  |  | less than 0.3 mg/g
